The test system of one data set is mice. The data set can be described thus: Forced swim test (FST) in mice. The class given is in vivo, Swiss albino mice. The following applies: for reduction of immobility time in FST: acute, 60 min before test; for effect of WAY-100635 on the antidepressant-like action of the compound in FST: compound 1.25 mg/kg i.p. + WAY-100635 0.3 mg/kg s.c.; for effect on immobility time in FST after repeated administration: i.p. once daily for 13 consecutive days, AZ-853 0.625 mg/kg, AZ-861 1.25 mg/kg. The text has this: The investigated compounds AZ-853 (8-(4-(4-(2-fluorophenyl)piperazin-1-yl)butyl)-1,3-dimethyl-1H-imidazo[2,1-f]purine-2,4(3H,8H)-dione and AZ-861 (1,3-dimethyl-8-(4-(4-(3-(trifluoromethyl)phenyl)piperazin-1-yl)butyl)-1H-imidazo[2,1-f]purine-2,4(3H,8H)-dione) were synthesised in the Department of Medicinal Chemistry, Faculty of Pharmacy, Jagiellonian University, and their synthesis was described earlier. AZ-853 and AZ-861 were suspended in 1% aqueous solution of Tween 80, and WAY-100635 (Sigma, Germany) was dissolved in 0.9% saline. In acute experiments, the selected compounds AZ-853 (0.156–2.5 mg/kg) and AZ-861 (0.625–2.5 mg/kg) were injected i.p. once 60 min before tests, whereas WAY-100635 (0.3 mg/kg) was administered subcutaneously (s.c.) 45 min before the test. […] In chronic experiments, AZ-853 and AZ-861 were administered i.p. once a day (between 9:00 AM and 10:00 AM) for 16 consecutive days at the minimum active doses selected from FST experiment, i.e. 0.625 and 1.25 mg/kg, respectively. All compounds were administered to mice at a volume of 10 ml/kg and to rats at a volume of 2 ml/kg. The control groups received 1% aqueous solution of Tween 80.
The experiment was carried out according to the method of Porsolt et al.. Swiss albino mice were individually placed in a glass cylinder (25 cm high; 10 cm in diameter) containing 10 cm of water maintained at 23–25°C, and were left there for 6 min. The total duration of immobility was recorded during the last 4 min of a 6-min. A mouse was regarded as immobile when it remained floating on the water, making only small movements to keep its head above it.
(§1) The Swiss albino mice were used in the experiment. AZ-853 and AZ-861 were injected once daily for 16 consecutive days. On the 1st and 15th day the administration of the compounds, 18-h spontaneous animal activity was registered (see below). FST, as described earlier, was performed on the 14th day just before the next treatment. To ensure that the effects observed in FST are not the result of increased motility of animals, on the 13th day, just before the next administration, the locomotor activity was measured as described earlier, from 2 to 6 min after test start, i.e. in the period identical to the duration of FST. Blood and organ collection was performed on the 17th day at 24 h after the last dose and fasting.

The nature of data set [1]: Liver, kidney and heart weight after repeated administration. It counts as in vivo, Swiss albino mice. To be noted: mice, AZ-853 0.625 mg/kg, AZ-861 1.25 mg/kg. On the procedure: as §1
The body weight was measured daily immediately prior to administration of the drugs. On the 17th day, the blood was collected from the Swiss albino mice sacrificed by decapitation 20 min after i.p. administration of heparin (2500 units/mouse) and then centrifuged at 600 × g (15 min, 4°C) to separate plasma. The liver, heart, and kidney were also collected and weighed.

Data set [2] is described as follows: Plasma glucose, triglyceride and cholesterol levels after repeated administration. The class given is in vivo, Swiss albino mice. To be noted: mice, AZ-853 0.625, AZ-861 1.25 mg/kg b.w./day. On the procedure: as §1
(§2) Blood samples were collected from the Swiss albino mice 24 h after the last administration of the tested compounds or vehicle. To determine glucose, cholesterol and triglyceride levels in the plasma, standard enzymatic spectrophotometric tests (Biomaxima S.A. Lublin, Poland) were used. In the presence of appropriate enzyme, the substrate was converted to a colored compound. Absorbance was measured at a wavelength of 500 nm. To determine alanine aminotransferase (ALAT) or γ-glutamyl transpeptidase (γ-GTP) activities in the plasma, the standard enzymatic spectrophotometric test (Biomaxima S.A.) was used. Absorbance was measured at 340 nm (ALAT) or 405 nm (γ-GTP).

A short description of data set [3]: Plasma ALAT and γ-GTP activity after repeated administration. The class given is in vivo, Swiss albino mice. To be noted: mice, AZ-853 0.625, AZ-861 1.25 mg/kg b.w./day. On the procedure:
as §1, §2

In another data set the test system is 5-HT1AR. Also noted: method as in PMID 27353547. The following applies: CHO-K1 cells, Ca2+ mobilisation; ref [8]; read-out: Kb, 5-HT1AR antagonist; cited from earlier work. On the technique in general: Calcium flux is commonly read through the fluorescence of an indicator in the cells.
The test system of a further data set is PDE10A. More on the design: method as in PMID 27353547. The following applies: in vitro, bioluminescent detection system; ref [8]; cited from earlier work.
Details of data set [4]: method as in PMID 27353547. To be noted: ref [8]; cited from earlier work.

Usually Kb stands for the equilibrium dissociation constant of an antagonist, usually derived from a functional assay. Regarding `Cn1c(=O)c2c(nc3n(CCCCN4CCN(c5ccccc5F)CC4)ccn23)n(C)c1=O` [AZ-853, 8-(4-(4-(2-fluorophenyl)piperazin-1-yl)butyl)-1,3-dimethyl-1H-imidazo[2,1-f]purine-2,4(3H,8H)-dione], the “reduction of immobility time in FST” value in the data set on mice (0.625 mg/kg i.p.) is on record as “approximately 50%”. Also, the “reduction of immobility time in FST” value in the data set with mice (1.25 mg/kg i.p.) is on record as approximately 58%. In addition, the “reduction of immobility time in FST” value in the data set with mice (2.5 mg/kg i.p.) is reported as approximately 45%. Further, in the data set with mice, the “effect of WAY-100635 on the antidepressant-like action of the compound in FST” value was “completely abolished” and the “effect on immobility time in FST after repeated administration” value was “decreased the immobility time”. In addition, the “effect on liver, kidney and heart weight (% of total body weight)” value in data set [1] is “neither AZ-853 (0.625 mg/kg) nor AZ-861 (1.25 mg/kg) influenced”. In addition, in data set [2], the “plasma glucose level vs. control” value was “did not influence the plasma glucose level”, the “plasma level of total cholesterol vs. control” value was “increased significantly” and the “plasma level of triglycerides vs. control” value is recorded as “increased significantly”. Further, in data set [3], the “increase of plasma γ-GTP activity” value is “approximately 435%” and the “plasma ALAT activity vs. control” value is on record as “did not lead to significant changes in ALAT activity”. The antagonist equilibrium constant (Kb) with 5-HT1AR was 2.7 nM. Further, the PDE10A inhibitory activity entry in the data set with PDE10A is “did not induce PDE4B and PDE10A inhibitory activity”. Also, in data set [4], the estimated log p is on record as 5.34.

For the molecule `Cn1c(=O)c2c(nc3n(CCCCN4CCN(c5cccc(C(F)(F)F)c5)CC4)ccn23)n(C)c1=O` [AZ-861, 1,3-dimethyl-8-(4-(4-(3-(trifluoromethyl)phenyl)piperazin-1-yl)butyl)-1H-imidazo[2,1-f]purine-2,4(3H,8H)-dione], in the data set on mice (1.25 mg/kg i.p.), the “reduction of immobility time in FST” value is given as “approximately 33%”. Further, in the data set with mice, the “effect of WAY-100635 on the antidepressant-like action of the compound in FST” value is on record as “attenuation of the anti-immobility effect” and the “effect on immobility time in FST after repeated administration” value is “decreased the immobility time”. The “effect on liver, kidney and heart weight (% of total body weight)” value in data set [1] is given as “neither AZ-853 (0.625 mg/kg) nor AZ-861 (1.25 mg/kg) influenced”. Further, in data set [2], the “plasma glucose level vs. control” value is reported as “did not influence the plasma glucose level”, the “plasma level of total cholesterol vs. control” value was “increased significantly” and the “plasma level of triglycerides vs. control” value is reported as “increased significantly”. In data set [3], the “increase of plasma γ-GTP activity” value is on record as “did not change activity” and the “plasma ALAT activity vs. control” value was “did not lead to significant changes in ALAT activity”. In addition, the Kb with 5-HT1AR was 1.4 nM. The PDE10A inhibitory activity result in the data set on PDE10A is “did not induce PDE4B and PDE10A inhibitory activity”. In addition, the estimated log p in data set [4] is 5.75.

These data come from PMC7413516, “Antidepressant-like activity and safety profile evaluation of 1H-imidazo[2,1-f]purine-2,4(3H,8H)-dione derivatives as 5-HT1A receptor partial agonists” (PLoS ONE, 2020).
